# Experimental data: US11964041B2, “Compositions comprising levan and use thereof” (GAN SHMUEL FOODS LTD., priority 2018, dated 2024)
# Assays:
# Assay type in all cases: cell-based
# [1] = system: human skin explants; assay: Epidermal turnover rate by BrdU assay in human skin organ culture; details: hyaluronic acid 0.2% with vehicle
# Method: (§1) The human skin organ culture was obtained from a healthy patient undergoing plastic surgery (person). The study was initiated at the day of surgery.
# (§2) Fixed size skin explant pieces (0.64 cm^2) were cut from the skin tissue, using a designated press apparatus.
# (§3) The skin pieces were prepared and maintained in air liquid interphase; the explants were laid in 6-well culture plates containing skin culture medium (Dulbecco Minimal Essential Medium (DMEM) supplemented with 100 U/ml penicillin and 100 μg/ml streptomycin), dermal side down in the medium and epidermis phasing up. The pieces were left to recover at 37° C. with 5% CO2 overnight. […]
# (§4) The following control groups were also included in this study: Naïve group (Group 1), Vehicle group (mock treatment—hexose, Group 2), and positive control groups for viability and proliferation (10% SDS, Group 3 and 10 ng/ml EGF, Group 4, respectively). Hyaluronic acid was evaluated in this system (0.2%, Group 5). […]
# The pieces were incubated at 37° C. with 5% CO2 under humidified atmosphere for 48 hr. […] The epidermal viability was evaluated by MTT, according to standard operating procedure (SOP). […] Concomitantly, the epidermal turnover rate was determined on the second set of test groups by BrdU assay according to the kit's manufacturer instructions. […]
# Colorimetric evaluation of the turnover rate was recorded by Enzyme-Linked Immunosorbent Assay (ELISA) reader.
# [2] = system: human skin explants; assay: Epidermal viability by MTT in human skin organ culture; details: 10% SDS, positive control, 48 hr
# Method: as §1, §2, §3, §4
# The pieces were incubated at 37° C. with 5% CO2 under humidified atmosphere for 48 hr. […] The epidermal viability was evaluated by MTT, according to standard operating procedure (SOP). […] Concomitantly, the epidermal turnover rate was determined on the second set of test groups by BrdU assay according to the kit's manufacturer instructions.
# [3] = system: Staphylococcus epidermidis; assay: Bacterial growth, minimal inhibition concentration (MIC) assay; details: Ampicillin 100 μg/ml, positive control
# Method: The experiment was conducted in Staphylococcus epidermidis. Two Test Items were evaluated in this study; Levan and a Commercial reference (C.R.). The assay was carried out in triplicates. The in vitro activity of the Test items was evaluated by minimal inhibition concentration (MIC) assay. This was measured spectrometrically. The increase bacteria number versus time of incubation w/o or with increasing concentrations of the Test items was plotted. Streak plate isolation technique was performed to isolate a single homogenous colony, according to SOP. One colony of each bacterial strain was inoculated from agar plate into U-shape falcon tube at a final volume of 4 ml in BHI liquid broth. Cultures were incubated in a bacterial incubator-shaker at 37° C. with shaking at 250 rpm overnight. The cultures were diluted and grown to mid-log phase (O.D. Approx. 0.5; 600 nm). The exact O.D. was recorded [0.506]. Dose response analysis of six concentrations for each Test Item was performed in the bacteria as described in Table 7. The following control groups were included in this study: Naïve group (Group 1), Vehicle group (mock treatment—hexose, Group 2) and positive control groups (Ampicillin (100 μg/ml), Group 3). […] The absorbance was recorded at 600 nm. The absorbance of the blank control was subtracted from all measurements (0.107).
compound,measurement,setting,value
Hyaluronic acid,effectiveness compared with the disclosed levan-based composition,[1],less effective
CCCCCCCCCCCCOS(=O)(=O)[O-].[Na+] [SDS],skin viability (MTT),[2],reduced skin viability
CC1(C)S[C@@H]2[C@H](NC(=O)[C@H](N)c3ccccc3)C(=O)N2[C@H]1C(=O)O [Ampicillin],bacterial growth (O.D. 600 nm),[3],effectively blocked the bacterial growth
